In ChEMBL document CHEMBL1124506, “Synthesis and antimicrobial properties of substituted beta-aminoxypropionyl penicillins and cephalosporins” (1989):
Values after ≈ are worked out from the molar mass of the structure shown.

Assays:
Assay type in all cases: functional
[1] = Inhibition of gram negative bacteria growth.
[2] = Inhibition of gram negative (resistant) growth.
[3] = tested on: Staphylococcus aureus; test: Inhibition of gram positive (resistant) bacteria growth.
[4] = Inhibition of gram positive bacteria growth.

Row | Compound | MIC [1] [µg/mL] | MIC [2] [µg/mL] | MIC [3] [µg/mL] | MIC [4] [µg/mL]
1 | CC1(C)SC2C(NC(=O)CCON=C3CCCC3)C(=O)N2[C@H]1C(=O)[O-].[K+] (some centres undefined) | 53 | > 200 | 25 | 0.06
2 | CC(=O)OCC1=C(C(=O)[O-])N2C(=O)C(NC(=O)CCO/N=C(\C)c3ccc(Cl)cc3)C2SC1.[K+] (centres undefined) | 151 | > 200 | 4 | 0.25
3 | CCCC(CCC)=NOCCC(=O)NC1C(=O)N2C(C(=O)O)=C(C)CSC12 (centres undefined) | > 200 | > 200 | 100 (≈ 252 µM) | 16.4 (≈ 41.3 µM)
4 | CC1(C)SC2C(NC(=O)CCON=C3CCCCC3)C(=O)N2[C@H]1C(=O)[O-].[K+] (some centres undefined) | 107 | > 200 | 25 | 0.2
5 | CC(=O)OCC1=C(C(=O)O)N2C(=O)C(NC(=O)CCON=C3c4ccccc4-c4ccccc43)C2SC1 (centres undefined) | 44 (≈ 84.4 µM) | > 100 | 0.25 (≈ 0.479 µM) | 0.02 (≈ 0.0383 µM)
6 | CC(=O)OCC1=C(C(=O)O)N2C(=O)C(NC(=O)CCON=C(C)C)C2SC1 (centres undefined) | 174 (≈ 436 µM) | > 200 | 6.2 (≈ 15.5 µM) | 1.7 (≈ 4.26 µM)
7 | CC(=O)OCC1=C(C(=O)O)N2C(=O)C(NC(=O)Cc3ccccc3)C2SC1 (centres undefined) | 29 (≈ 74.3 µM) | > 200 | 12.6 (≈ 32.3 µM) | 1.06 (≈ 2.72 µM)
8 | CC(=O)OCC1=C(C(=O)O)N2C(=O)C(NC(=O)CCON=C3CCCCC3)C2SC1 (centres undefined) | 174 (≈ 396 µM) | > 200 | 1.9 (≈ 4.32 µM) | 0.5 (≈ 1.14 µM)
9 | CC(=O)OCC1=C(C(=O)O)N2C(=O)C(NC(=O)CCO/N=C\c3ccccc3)C2SC1 (centres undefined) | 71 (≈ 159 µM) | > 200 | 4 (≈ 8.94 µM) | 0.22 (≈ 0.492 µM)
10 | CC1=C(C(=O)O)N2C(=O)C(NC(=O)Cc3ccccc3)C2SC1 (centres undefined) | 123 (≈ 370 µM) | > 200 | 200 (≈ 602 µM) | 6.2 (≈ 18.7 µM)
11 | CC1=C(C(=O)O)N2C(=O)C(NC(=O)CCO/N=C(\C)c3ccc(Cl)cc3)C2SC1 (centres undefined) | > 200 | > 200 | 63 (≈ 144 µM) | 4.7 (≈ 10.7 µM)
12 | CC1(C)SC2C(NC(=O)CCO/N=C/c3ccccc3)C(=O)N2[C@H]1C(=O)[O-].[K+] (some centres undefined) | 136 | > 200 | 50 | 0.1
13 | CC1=C(C(=O)O)N2C(=O)C(NC(=O)CCON=C3CCCCC3)C2SC1 (centres undefined) | 131 (≈ 343 µM) | > 200 | 79 (≈ 207 µM) | 7.3 (≈ 19.1 µM)
14 | CC1=C(C(=O)O)N2C(=O)C(NC(=O)CCO/N=C\c3ccccc3)C2SC1 (centres undefined) | > 200 | > 200 | 79 (≈ 203 µM) | 8.2 (≈ 21.1 µM)
15 | CC1=C(C(=O)O)N2C(=O)C(NC(=O)CCON=C3CCCC3)C2SC1 (centres undefined) | 131 (≈ 357 µM) | > 200 | 79 (≈ 215 µM) | 9.1 (≈ 24.8 µM)
16 | CCCC(CCC)=NOCCC(=O)NC1C(=O)N2C(C(=O)O)=C(COC(C)=O)CSC12 (centres undefined) | 93 (≈ 204 µM) | > 200 | 10 (≈ 22 µM) | 0.73 (≈ 1.6 µM)
17 | CC1(C)SC2C(NC(=O)CCON=C3c4ccccc4-c4ccccc43)C(=O)N2[C@H]1C(=O)[O-].[K+] (some centres undefined) | 131 | > 200 | 8 | 0.06
18 | CC1(C)S[C@@H]2[C@H](NC(=O)[C@H](N)c3ccccc3)C(=O)N2[C@H]1C(=O)O [AMPICILLIN] | 1 (≈ 2.86 µM) | > 200 | 10 (≈ 28.6 µM) | 0.04 (≈ 0.114 µM)
19 | CC1=C(C(=O)O)N2C(=O)[C@@H](NC(=O)[C@H](N)c3ccccc3)[C@H]2SC1 [CEPHALEXIN ANHYDROUS] | 2 (≈ 5.76 µM) | > 100 | 20 (≈ 57.6 µM) | 0.4 (≈ 1.15 µM)
20 | CC1(C)S[C@@H]2[C@H](NC(=O)Cc3ccccc3)C(=O)N2[C@H]1C(=O)O [PENICILLIN G] | 71 (≈ 212 µM) | > 200 | 79 (≈ 236 µM) | 0.05 (≈ 0.15 µM)
21 | [3H]C([3H])([3H])N1C(=O)CN=C(c2ccc(Cl)cc2)c2cc(Cl)ccc21 [[3H]-RO-54864] | 71 (≈ 218 µM) | > 200 | 7.3 (≈ 22.4 µM) | 0.59 (≈ 1.81 µM)
